Measured values from ChEMBL document CHEMBL4715823, “Homogeneous Assay for Target Engagement Utilizing Bioluminescent Thermal Shift” (ACS Med Chem Lett, 2018).
Activity calls are given as the source filed them. The calls are words filed in the database; no cut-off is given here.

Columns and labels:
[1] = target: Mitogen-activated protein kinase 14 (Homo sapiens) (UniProt Q16539); settings: HeLa, dose 50.0 µM
[2] = target: Mitogen-activated protein kinase 14 (Homo sapiens) (UniProt Q16539); settings: HeLa, dose 50.0 µM; remark: listed apart in the source

Chain of Mitogen-activated protein kinase 14 (Homo sapiens) (Q16539 whole entry): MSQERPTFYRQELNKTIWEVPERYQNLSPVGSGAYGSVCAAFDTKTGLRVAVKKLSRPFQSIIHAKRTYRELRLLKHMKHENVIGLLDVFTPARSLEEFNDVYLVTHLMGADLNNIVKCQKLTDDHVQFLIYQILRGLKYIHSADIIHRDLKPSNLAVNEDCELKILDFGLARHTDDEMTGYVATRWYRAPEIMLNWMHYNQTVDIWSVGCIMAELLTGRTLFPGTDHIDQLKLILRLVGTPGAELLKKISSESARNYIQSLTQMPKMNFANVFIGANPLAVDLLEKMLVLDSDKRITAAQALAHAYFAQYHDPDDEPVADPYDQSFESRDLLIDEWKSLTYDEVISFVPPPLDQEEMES

| SMILES | Tm [1] | ΔTm [2] [°C] |
| --- | --- | --- |
| Cc1ncc(-c2ccnc(Nc3ccc(S(C)(=O)=O)cc3)n2)n1C(C)C | inactive | – |
| CC(C)(C)n1nc(-c2ccc(Cl)cc2)c2c(N)ncnc21 | – | 1.17 |
| Oc1ccc(-c2nc(-c3ccc(F)cc3)c(-c3ccncc3)[nH]2)cc1 | – | 7.8 |
| C/C(O)=C(\C#N)C(=O)Nc1cc(Br)ccc1Br | – | 3.43 |
